Test results as given in ChEMBL document CHEMBL4665827, “Discovery of Small-Molecule Inhibitors of Receptor Activator of Nuclear Factor-κB Ligand with a Superior Therapeutic Index” (J Med Chem, 2020).
Active and inactive are the calls of the source. No cut-off for these calls is given here.

Tests used:
[1] = molecular target: T1, Tumor necrosis factor ligand superfamily member 11 (Homo sapiens, UniProt O14788); experiment: Binding affinity to GST-fused human RANKL extracellular domain (Lys159 to Asp317 residues) expressed in Escherichia coli BL21(DE3) pLysS by fluorescence spectrophotometric assay
T1 sequence (O14788 whole entry): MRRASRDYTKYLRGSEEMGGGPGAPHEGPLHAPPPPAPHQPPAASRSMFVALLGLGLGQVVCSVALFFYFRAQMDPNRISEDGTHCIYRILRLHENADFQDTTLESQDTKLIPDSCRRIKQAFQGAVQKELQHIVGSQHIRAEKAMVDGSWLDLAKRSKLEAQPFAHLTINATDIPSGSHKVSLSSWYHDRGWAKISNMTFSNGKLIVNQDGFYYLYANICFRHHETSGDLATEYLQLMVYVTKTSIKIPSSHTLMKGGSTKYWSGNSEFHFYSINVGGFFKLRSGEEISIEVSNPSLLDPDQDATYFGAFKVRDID

[2] = molecular target: T2, Tumor necrosis factor ligand superfamily member 11 (Homo sapiens) (UniProt O14788); experiment: Inhibition of human RANKL-induced osteoclastogenesis in RANKL cultured mouse bone marrow cells assessed as reduction in RANKL/M-CSF-induced TRAP activity at 5 uM preincubated with RANKL for 1 hr followed by cell addition and subsequent media replenishment every 48 hrs for 4 days; format: cell-based; settings: time 4.0 day
T2 sequence (whole entry): T1 sequence (O14788 whole entry)

BMMC = experiment: Cytotoxicity against mouse BMMC assessed as reduction in cell viability at 5 uM measured after 48 hrs by MTT assay; format: cell-based
[3] = Therapeutic index, ratio of LC50 for mouse bone marrow cells to IC50 for Inhibition of human RANKL-induced osteoclastogenesis in RANKL cultured mouse bone marrow cells; format: toxicity; settings: read-out: Ratio LC50/IC50
[4] = Cytotoxicity against mouse BMMC assessed as reduction in cell viability measured after 48 hrs by MTT assay; format: cell-based; settings: mouse BMMC (bone marrow cells), read-out: LC50
[5] = molecular target: T2, Tumor necrosis factor ligand superfamily member 11 (Homo sapiens); experiment: Inhibition of human RANKL-induced osteoclastogenesis in RANKL cultured mouse bone marrow cells assessed as reduction in RANKL/M-CSF-induced TRAP activity preincubated with RANKL for 1 hr followed by cell addition and subsequent media replenishment every 48 hrs for 4 days; format: cell-based; settings: time 4.0 day
[6] = molecular target: T2, Tumor necrosis factor ligand superfamily member 11 (Homo sapiens); experiment: (§1) Inhibition of RANKL (unknown origin) in RANKL cultured mouse RAW264.7 cells assessed as reduction in RANKL/RANK-interaction mediated NFATc1 expression by measuring NFATc1 protein expression at 5 uM preincubated for 1 hr followed by cell culture addition and measured after 2 days by Western blot analysis relative to positive control (reference value: 1); format: cell-based; settings: time 49.0 hrs
[7] = molecular target: T2, Tumor necrosis factor ligand superfamily member 11 (Homo sapiens); experiment: as §1, with “cFOS” for “NFATc1”, “10” for “5”; format: cell-based; settings: time 49.0 hrs
[8] = molecular target: T2, Tumor necrosis factor ligand superfamily member 11 (Homo sapiens); experiment: as §1, with “10” for “5”; format: cell-based; settings: time 49.0 hrs
[9] = molecular target: T2, Tumor necrosis factor ligand superfamily member 11 (Homo sapiens); experiment: as §1, with “2” for “5”; format: cell-based; settings: time 49.0 hrs
[10] = molecular target: T2, Tumor necrosis factor ligand superfamily member 11 (Homo sapiens); experiment: as §1, with “cFOS” for “NFATc1”, “2” for “5”; format: cell-based; settings: time 49.0 hrs
[11] = molecular target: T2, Tumor necrosis factor ligand superfamily member 11 (Homo sapiens); experiment: as §1, with “cFOS” for “NFATc1”; format: cell-based; settings: time 49.0 hrs

| SMILES | Kd [1] | inhibition [2] | Kd ([1]; read-out: Kd) | CC50 at 48 h [4] | further results |
| --- | --- | --- | --- | --- | --- |
| Nc1cccc(S(=O)(=O)n2cc(C(=O)N3CCN(C(=O)c4coc5ccccc5c4=O)CC3)c3ccccc32)c1 | Not Active | inactive |  |  |  |
| Cc1ccc2occ(CN(C)CCN(C)Cc3cn(S(=O)(=O)c4ccccc4)c4ccccc34)c(=O)c2c1 |  |  | 6.62 µM |  | Activity (BMMC): Toxic |
| O=C(c1cn(S(=O)(=O)c2cccc([N+](=O)[O-])c2)c2ccccc12)N1CCN(S(=O)(=O)c2cccc([N+](=O)[O-])c2)CC1 |  |  |  | 118 µM | selectivity ratio [3]: 18.5 |
| CN(CCN(C)C(=O)c1cn(S(=O)(=O)c2ccccc2)c2ccccc12)C(=O)c1ccccc1F |  | Active | 12.5 µM | > 20 µM |  |
| CN(CCN(C)S(=O)(=O)c1ccccc1)C(=O)c1cn(S(=O)(=O)c2cccc([N+](=O)[O-])c2)c2ccccc12 |  |  |  | > 300 µM | selectivity ratio [3]: > 112 |
| CN(CCN(C)C(=O)c1cn(S(=O)(=O)c2cccc(N)c2)c2ccccc12)C(=O)c1coc2ccccc2c1=O |  | inactive | 22.3 µM |  |  |
| O=C(NCCCNC(=O)c1cn(S(=O)(=O)c2ccccc2)c2ccccc12)c1coc2ccccc2c1=O | Not Active | inactive |  |  |  |
| O=C(c1ccccc1)N1CCN(C(=O)c2cn(-c3cccc(C(F)(F)F)c3)c3ccccc23)CC1 | Not Active | inactive |  |  |  |
| O=C(c1cn(-c2cccc(C(F)(F)F)c2)c2ccccc12)N1CCN(C(=O)n2ccnc2)CC1 |  | Active | 5.34 µM | < 20 µM |  |
| Nc1cccc(-n2cc(C(=O)N3CCN(C(=O)c4coc5ccccc5c4=O)CC3)c3ccccc32)c1 |  | inactive | 19.1 µM |  |  |
| CN(CCN(C)S(=O)(=O)c1cccc([N+](=O)[O-])c1)C(=O)c1cn(S(=O)(=O)c2cccc([N+](=O)[O-])c2)c2ccccc12 |  |  |  | 18.3 µM | selectivity ratio [3]: 9.5 |
| CN(CCN(C)C(=O)c1cn(S(=O)(=O)c2cccc([N+](=O)[O-])c2)c2ccccc12)C(=O)c1coc2ccccc2c1=O |  | 100% | 4.6 µM | 32.2 µM | selectivity ratio [3]: 6.3; inhibition [5]: Dose-dependent effect |
| CN(CCN(C)C(=O)c1cn(S(=O)(=O)c2ccccc2)c2ccccc12)C(=O)c1ccccc1 |  | inactive | > 15 µM |  |  |
| Cc1ccc2occ(CN3CCN(Cc4cn(-c5cccc(C(F)(F)F)c5)c5ccccc45)CC3)c(=O)c2c1 |  | inactive | > 11 µM |  |  |
| O=C(NCCNC(=O)c1cn(S(=O)(=O)c2ccccc2)c2ccccc12)c1ccc2ccccc2c1 |  | inactive | 3.55 µM |  |  |
| CN(CCN(C)S(=O)(=O)c1ccc(C#N)cc1)C(=O)c1cn(S(=O)(=O)c2cccc([N+](=O)[O-])c2)c2ccccc12 |  |  |  | > 500 µM | selectivity ratio [3]: > 250 |
| CN(CCN(C)C(=O)n1ccnc1)C(=O)c1cn(S(=O)(=O)c2ccccc2)c2ccccc12 | Not Active | inactive |  |  |  |
| Cc1cc2occ(CN3CCN(Cc4cn(-c5cccc(C(F)(F)F)c5)c5ccccc45)CC3)c(=O)c2cc1C |  | 100% | > 10 µM | < 20 µM |  |
| O=C(c1ccc2ccccc2c1)N1CCN(C(=O)c2cn(-c3cccc(C(F)(F)F)c3)c3ccccc23)CC1 | Not Active | inactive |  |  |  |
| O=C(c1cn(S(=O)(=O)c2cccc([N+](=O)[O-])c2)c2ccccc12)N1CCN(S(=O)(=O)c2ccccc2)CC1 |  |  |  | 123 µM | fold change (FC) [6]: 0.57; fold change (FC) [7]: 0.56; fold change (FC) [8]: 0.34; selectivity ratio [3]: 84.8; fold change (FC) [9]: 0.82; fold change (FC) [10]: 0.91; fold change (FC) [11]: 0.63 |
| O=C(c1coc2ccccc2c1=O)N1CCN(C(=O)c2cn(-c3cccc(C(F)(F)F)c3)c3ccc([N+](=O)[O-])cc23)CC1 | Not Active | inactive |  |  |  |

| SMILES | Kd [1] | inhibition [2] | Kd ([1]; read-out: Kd) | CC50 at 48 h [4] | further results |
| --- | --- | --- | --- | --- | --- |
| O=C(c1ccccc1)N1CCN(Cc2cn(-c3cccc(C(F)(F)F)c3)c3ccccc23)CC1 |  | Active | 18.6 µM | > 20 µM |  |
| O=C(c1coc2ccccc2c1=O)N1CCN(C(=O)c2cn(S(=O)(=O)c3cccc([N+](=O)[O-])c3)c3ccccc23)CC1 | Not Active | 100% |  | < 20 µM |  |
| O=C(c1cccs1)N1CCN(C(=O)c2c[nH]c3ccc([N+](=O)[O-])cc23)CC1 |  | inactive | 15.8 µM |  |  |
| Cc1cc2occ(CN(C)CCN(C)Cc3cn(S(=O)(=O)c4ccccc4)c4ccccc34)c(=O)c2cc1C |  |  | 8.71 µM |  | Activity (BMMC): Toxic |
| N#Cc1ccc(S(=O)(=O)N2CCN(C(=O)c3cn(S(=O)(=O)c4cccc([N+](=O)[O-])c4)c4ccccc34)CC2)cc1 |  |  |  | 52.6 µM | selectivity ratio [3]: 10.4 |
| Nc1cccc(-n2cc(C(=O)N3CCN(C(=O)c4coc5ccccc5c4=O)CC3)c3cc(N)ccc32)c1 |  | Active | 9.31 µM | > 20 µM |  |
| O=C(c1coc2ccccc2c1=O)N1CCN(C(=O)c2cn(-c3cccc([N+](=O)[O-])c3)c3ccccc23)CC1 |  | inactive | > 25 µM |  |  |
| CN(CCN(C)C(=O)c1cn(-c2cccc(C(F)(F)F)c2)c2ccc([N+](=O)[O-])cc12)C(=O)c1coc2ccccc2c1=O |  | 100% | 2.82 µM | < 20 µM |  |
| O=C(c1coc2ccccc2c1=O)N1CCN(Cc2cn(-c3cccc(C(F)(F)F)c3)c3ccccc23)CC1 |  | Active | 8.49 µM | > 20 µM |  |
| Cc1cc2occ(C(=O)N3CCN(C(=O)c4cn(-c5cccc(C(F)(F)F)c5)c5ccccc45)CC3)c(=O)c2cc1C |  | 100% | 4.6 µM | < 20 µM |  |
| O=C(c1ccc2ccccc2c1)N1CCN(Cc2cn(-c3cccc(C(F)(F)F)c3)c3ccccc23)CC1 | Not Active | inactive |  |  |  |
| O=C(NCCCNC(=O)c1cn(S(=O)(=O)c2ccccc2)c2ccccc12)c1ccccc1 | Not Active | inactive |  |  |  |
| O=C(c1ccc2ccccc2c1)N1CCN(C(=O)c2cn(S(=O)(=O)c3ccccc3)c3ccccc23)CC1 | Not Active | inactive |  |  |  |
| O=C(c1ccccc1F)N1CCN(C(=O)c2c[nH]c3ccc([N+](=O)[O-])cc23)CC1 |  | Active | 12.8 µM | > 20 µM |  |
| O=C(c1coc2ccccc2c1=O)N1CCN(C(=O)c2cn(S(=O)(=O)c3ccccc3)c3ccccc23)CC1 |  | Active | 11 µM | > 20 µM |  |
| Cc1ccc2c(=O)c(CN(C)CCN(C)Cc3cn(S(=O)(=O)c4ccccc4)c4ccccc34)coc2c1 |  | 100% | 4.9 µM | < 20 µM |  |
| O=C(c1coc2ccccc2c1=O)N1CCN(Cc2cn(-c3cccc(C(F)(F)F)c3)c3ccc([N+](=O)[O-])cc23)CC1 | Not Active | 100% |  | < 20 µM |  |
| CN(CCN(C)C(=O)c1cn(-c2cccc(N)c2)c2ccccc12)C(=O)c1coc2ccccc2c1=O |  | inactive | 17.6 µM |  |  |
| O=C(NCCCCNC(=O)c1cn(S(=O)(=O)c2ccccc2)c2ccccc12)c1ccc2ccccc2c1 |  | inactive | 18.4 µM |  |  |
| Nc1cccc(-n2cc(C(=O)N3CCN(C(=O)C4COc5ccccc5C4=O)CC3)c3cc(N)ccc32)c1 (configuration not stated) | Not Active | inactive |  |  |  |
| O=C(c1ccc2ccccc2c1)N1CCN(Cc2cn(-c3cccc(C(F)(F)F)c3)c3ccc([N+](=O)[O-])cc23)CC1 | Not Active | Active |  | > 20 µM |  |
